Laboratory results: US7108865B2, “Controlled-release dosage forms of azithromycin” (Pfizer Inc, priority 1994, dated 2006)

Details: pH 7
From the text: A third class of azithromycin sustained-release dosage forms includes the osmotic delivery devices or “osmotic pumps” as they are known in the art. Osmotic pumps comprise a core containing an osmotically effective composition surrounded by a semipermeable membrane. The term “semipermeable” in this context means that water can pass through the membrane, but solutes dissolved in water cannot. In use, when placed in an aqueous environment, the device imbibes water due to the osmotic activity of the core composition. […] The osmotically effective composition includes water-soluble species, which generate a colloidal osmotic pressure, and water-swellable polymers.

| Compound | solubility | osmotic pressure corresponding to the solubility |
| --- | --- | --- |
| CC[C@H]1OC(=O)[C@H](C)[C@@H](O[C@H]2C[C@@](C)(OC)[C@@H](O)[C@H](C)O2)[C@H](C)[C@@H](O[C@@H]2O[C@H](C)C[C@H](N(C)C)[C@H]2O)[C@](C)(O)C[C@@H](C)CN(C)[C@H](C)[C@@H](O)[C@]1(C)O [azithromycin dihydrate] | much lower |  |
| Azithromycin fumarate | about 100 mg/ml | about 3 atmospheres |
